Measured values reported in patent US11951085B2, “Methods of treating injuries or conditions related to CNS edema” (BIOGEN CHESAPEAKE LLC, priority 2015, dated 2024).

What was measured:
Assay type in all cases: in vivo, human
[1] = test system: subjects with TBI having lesional blood (contusion); experiment: Randomized double blind placebo controlled study in Traumatic Brain Injury (MRI edema, GOSE)
Experimental: The administration of the test drug was as follows: a bolus of 0.13 mg of the SUR1-TRPM4 channel inhibitor was administered over approximately 2 minutes followed by a continuous infusion of 0.16 mg/hr for 6 hours, and then a continuous infusion of 0.11 mg/hr for 66 hours, for a total dosing period of 72 hours. The total daily dose of Study Drug on Day 1, Day 2 and Day 3 was 3.12 mg, 2.67 mg, and 2.67 mg, respectively. All subjects were assessed by MRI scans at baseline and 72 hours.
The 14 subjects (7 drug and 7 placebo) identified as having evidence of lesional blood (i.e., blood associated with a contusion) at baseline and having MRI scans at both baseline and 72 hours were assessed for edema using MIM software version 5.6. Blinded readers ascertained x, y, z measurements of the total apparent contusion using T2 images, unless missing, in which case, DTI images were used. Only contusions that could be reliably measured (measuring at least about 1 cc) were measured. Readers also ascertained the volume measurements of hemorrhages in a similar manner using SWI images. Linear measurements were captured in centimeters (cm) and all volumes in cubic centimeters (cc). Volumes were calculated using the ABC/2 standard. The volume of apparent edema was calculated as the difference between the overall apparent contusion volume and the volume of the hemorrhage. For analysis, if there were multiple lesions, the volumes of all lesions meeting the threshold were combined.

[2] = test system: MMP-9; experiment: Large Hemispheric Infarction study: MMP-9 values in blood samples; conditions: blood samples at 24 hours and at 72 hours, averaged
Experimental: (§1) In order to determine the efficacy of SUR1-TRPM4 channel inhibitors for reducing or treating neurological conditions associated with cell swelling and CNS or cerebral edema, a randomized double blind placebo controlled clinical study was conducted. […] Within the “per protocol” group, 77 patients who were confirmed centrally to have brain lesions from 82 cc to 300 cc. Forty one of subjects were administered the test drug and 36 subjects were administered the placebo. The administration of the test drug was as follows: a bolus of 0.13 mg of the SUR1-TRPM4 channel inhibitor was administered over approximately 2 minutes followed by a continuous infusion of 0.16 mg/hr for 6 hours, and then a continuous infusion of 0.11 mg/hr for 66 hours, for a total dosing period of 72 hours. The total daily dose of Study Drug on Day 1, Day 2 and Day 3 was 3.12 mg, 2.67 mg, and 2.67 mg, respectively.
Additionally, MMP-9 values based in blood samples were taken at 24 hours and at 72 hours for the study participants and then averaged. MMP-9 levels are known to rise after stroke and are believed to represent blood brain barrier dysfunction. The MMP-9 average values are shown in Table 8 below, and graphed in FIG. 7.

[3] = Large Hemispheric Infarction study: blood glucose monitoring; conditions: one patient, receiving 10 wt % dextrose solution; infusion rate reduced by 30% and glucose stabilized
Experimental: as §1
a) During the Double Blind Placebo Controlled Study, there was a lab confirmed blood glucose level that dropped to 51 mg/dL which was recorded for one of the patients who was receiving a 10 wt % dextrose solution.

[4] = test system: subjects with Large Hemispheric Infarction (brain lesions of 82 cc to 300 cc); experiment: Randomized double blind placebo controlled study in Large Hemispheric Infarction: clinical outcomes (mortality, mRS, Barthel Index, EQ-5D); set-up: median mRS / EQ-5D Median Difference: scale not given here; conditions: for Difference in 90 Day Score of mRS 0-4: Test Drug Group versus Placebo Group
Experimental: as §1
The incidence of mortality in the individuals was recorded at both 30 and 90 days following treatment. The Reduction in Mortality as a result of administration of the SUR1-TRPM4 channel inhibitor is shown in Table 2 below, and graphed in FIG. 1.
Additional mortality data was collected as it related to drug and placebo treatment with and without a Decompressive Craniectomy (DC). Essentially, the incidence of mortality was recorded for study participants that passed away following a DC prior to the end of the study period. The incidence of mortality when a DC occurred compared to no DC is shown in Table 3 below, and graphed in FIG. 2.
The subjects in this study were also tested using the modified Rankin Scale (mRS). One way to assess outcome in large strokes, such as those studied, is to determine the percentage of patients in each group who have a mRS of 0-4 at 90 days after stroke. The results of the 90 day mRS study is shown in Table 4 below, and graphed in FIG. 3.
The Barthel Index is another functional outcome that can be used to assess outcome of stroke patients. The subjects of the study were also scored using the Barthel index both initially and again at about 90 days. The degree of improvement in the Barthel index scores are shown in Table 5 below and graphed in FIG. 4.
Mortality can be multifactorial and may depend on factors such as preexisting comorbidities and risk factors. […] Specifically, cause of death was adjudicated by three adjudicators blinded to study drug group. Imaging and clinical data were used to determine, among other outcomes, cause of death. […] Consistent with our proposed mechanism of action, mortality attributable to edema was the driver behind reductions in overall mortality.
The magnitude of difference between placebo and treatment arms on the mRS as an ordinal scale is frequently measured using the Mann-Whitney test and a common odds ratio (OR) may be derived using the proportional odds methodology to explore effect size. In accordance with this, a common OR of 1.2 represents a clinically meaningful difference. The OR for effect size in patients ≤70 in the per-protocol population was 2.49, which represents a substantial clinical effect.
The Barthel Index (BI) is a measure of activities of daily living. It has been widely used and accepted in stroke trials and is one of the more prevalent scales used in acute stroke. In one example, a minimum clinically important change that is beyond measurement error is about 20 points on the 100-point scale, which was used as a benchmark in this study. The median delta or differences seen in the ≤70 per-protocol population at 90 days, 6 months, and 12 months between drug and placebo were 35, 27.5, and 45, respectively, all exceeding the accepted threshold. A common interpretation of the BI considers a score of ≤40 to be a clearly bad outcome, whereas a score of ≥60 is a clearly good outcome.
The EuroQol-5D (EQ-5D) is a generic instrument used to assess quality of life in a variety of conditions, including stroke. […]

[5] = Full per-protocol population, 6 Months
[6] = Full per-protocol population, 12 Months
[7] = PP ≤ 9 hr (drug in 9 hours or less), N 33 (14/19)
[8] = patients ≤70, per-protocol population
[9] = ≤70 per-protocol population, 6 Months
[10] = ≤70 per-protocol population, 12 Months
[11] = ≤70 per-protocol population, Day 90

COc1ccc(Cl)cc1C(=O)NCCc1ccc(S(=O)(=O)NC(=O)NC2CCCCC2)cc1 [glyburide]
evolution (growth) of edema from baseline to 72 hours ([1]; 7 drug subjects with lesional blood, MRI volume, placebo 10.28-fold): 2.14 fold | mean Glasgow Coma Scale Extended score (GOSE) ([1]; at 180 days, placebo 6.17): 6 | drug-related effects in non-lesioned subjects or areas of the brain without a lesion ([1]; in vivo): No drug-related effects were detected | MMP-9 Average [2]: 193.18 ng/mL | lab confirmed blood glucose level [3]: 51 mg/dL | % Death 30 days ([4]; 41 individuals, per protocol): 14.6% | % Death 90 days ([4]; 41 individuals, per protocol): 17.1% | EQ-5D Median Difference [4, 5]: 0.34 | Survival OR [4, 5]: 2.63 | mRS OR [4, 5]: 1.88 | EQ-5D Median Difference [4, 6]: 0.14 | Survival OR [4, 6]: 2.54 | mRS OR [4, 6]: 1.64 | EQ-5D Median Difference ([4]; Full per-protocol population, 90 Days, drug vs placebo): 0.30 | Survival OR ([4]; Full per-protocol population, Day 90): 2.74 | mRS OR ([4]; Full per-protocol population, Day 90, ordinal): 1.91 | Mortality OR ([4]; PP population, N 77 (36/41), logistic regression): 2.75 | mRS 0-6 OR ([4]; PP population, N 77 (36/41), ordinal logistic regression): 1.91 | Mortality OR [4, 7]: 2.96 | mRS 0-6 OR [4, 7]: 2.31 | Difference in 90 Day Score of mRS 0-4 [4]: 14.6% | Difference in 90 Day Score of mRS 0-4 ([4]; listed as Test Drug): +14.6% | "zero effect" lesion size ([4]; by extrapolation, mRS shift OR of 1): about 100 cc | EQ-5D median difference between drug and placebo ([4]; full and ≤70 per-protocol populations, all time points): greater than 0.12 | Mortality with DC ([4]; number of deaths among 13 individuals receiving decompressive craniectomy): 2 | Mortality without DC ([4]; number of deaths among 28 individuals with no decompressive craniectomy): 5 | Mortality 90 days (includes 30 day values) ([4]; number of deaths among 41 individuals, per protocol): 7 | Mortality 30 days ([4]; number of deaths among 41 individuals, per protocol, 30 days following treatment): 6 | effect size at the mRS 0-3 dichotomization [4, 8]: 14% | effect size at the mRS 0-4 dichotomization [4, 8]: 22% | Adjudicated mortality due to edema ([4]; per-protocol group (1/41), placebo 22.22% (8/36), p=0.01): 2.44% | 90 Day Score of mRS 0-4 ([4]; percentage of patients with mRS 0-4 at 90 days after stroke): 61.4% | median mRS ([4]; treated group, median of 5 in the placebo): 4 | EQ-5D Median Difference [4, 9]: 0.29 | Survival OR [4, 9]: 3.47 | mRS OR [4, 9]: 2.33 | EQ-5D Median Difference [4, 10]: 0.30 | Survival OR [4, 10]: 4.00 | mRS OR [4, 10]: 2.24 | EQ-5D Median Difference ([4]; ≤70 per-protocol population, 90 Days): 0.29 | Survival OR [4, 11]: 3.88 | mRS OR [4, 11]: 2.49
